Values joined by “and” are separate entries in the source; they are usually repeats but may differ in a detail not shown here. Equal values may be shown once.
Legend:
Assay type in all cases: in vivo
Stellaria media = assay: greenhouse post-emergence treatment, STEME
Outline: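 Plants were grown in loamy sand with about 3.0% humus to 3–15 cm height, then sprayed with actives formulated as 10% by weight emulsion concentrates in water. Held at 10-25° C. or 20-35° C. by species for 2 to 4 weeks; damage scored 0 (none) to 100 (complete destruction).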

Setaria viridis = assay: greenhouse pre-emergence treatment, SETVI
Outline: (§1)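 Damage rated on 0 to 100 scale (0 = normal growth, 100 = no emergence or total above-ground kill) after 2-4 weeks at species-dependent 10-25° C or 20-35° C. Seeds sown per species in loamy sand, ~3.0% humus, treated right after sowing with aqueous spray of single actives or 10% emulsion-concentrate mixtures, then hooded; additive expectation by Colby.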

Polygonum aviculare = assay: greenhouse post-emergence treatment, POLAV
Outline: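 Greenhouse; post-emergence spray at 3–15 cm; aqueous EC formulation; 2–4 weeks; 0–100 visual score.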

Digitaria sanguinalis = assay: greenhouse pre-emergence treatment, DIGSA
Outline: as §1

Matricaria chamomilla = assay: greenhouse pre-emergence treatment, MATCH; conditions: 20 DAT
Excerpt: The culture containers used were plastic pots containing loamy sand with approximately 3.0% of humus as substrate. The seeds of the test plants were sown separately for each species.
For the pre-emergence treatment, the active compounds, suspended or emulsified in water, were applied directly after sowing by means of finely distributing nozzles. The containers were irrigated gently to promote germination and growth and subsequently covered with transparent plastic hoods until the plants had rooted. This cover caused uniform germination of the test plants unless this was adversely affected by the active compounds.
Depending on the species, the plants were kept at 10-25° C. and 20-35° C., respectively.
The test period extended over 2 to 4 weeks. During this time, the plants were tended and their response to the individual treatments was evaluated.
Evaluation was carried out using a scale from 0 to 100. 100 means no emergence of the plants, or complete destruction of at least the above-ground parts, and 0 means no damage or normal course of growth. A good herbicidal activity is given at values of at least 70, and very good herbicidal activity is given at values of at least 85.
The respective stated components A and B, and if appropriate, C were formulated as a 10% by weight strength emulsion concentrate and, with addition of the amount of solvent system, introduced into the spray liquor used for applying the active compound. In the examples, the solvent used was water.
In the examples below, using the method of S. R. Colby (1967) “Calculating synergistic and antagonistic responses of herbicide combinations”, Weeds 15, p. 22ff., the value E, which is expected if the activity of the individual active compounds is only additive, was calculated. E=X+Y−(X·Y/100) where X=effect in percent using herbicide A at an application rate a; • Y=effect in percent using herbicide B at application rate b; • E=expected effect (in %) of herbicide A+herbicide B at application rates a+b.

Brachiaria decumbens = assay: greenhouse pre-emergence treatment, BRADC
Outline: as §1

Lolium multiflorum = assay: greenhouse pre-emergence treatment, LOLMU
Outline: as §1

Galium aparine = assay: greenhouse pre-emergence treatment, GALAP
Outline: as §1

Poa annua = assay: greenhouse pre-emergence treatment, POAAN; conditions: 20 DAT
Outline: as §1

[1] = 20 DAT, Ex. 26 solo 62.5 gai/ha
[2] = 20 DAT, Ex. 26 solo 31.25 gai/ha

## COC(=O)c1nc(C2CC2)ncc1-c1ccc(F)cc1Cl [Ex. 26]
Stellaria media; [1]
  % activity: 0%
Stellaria media; 20 DAT, STEME, Ex. 26 solo 250 gai/ha
  % activity: 60%
Stellaria media; Ex. 26 solo 62.5 gai/ha, 20 DAT, STEME
  % activity: 20%
Stellaria media; Ex. 26 solo 125 gai/ha, 20 DAT, STEME
  % activity: 55%
Stellaria media; Ex. 26 solo 125 gai/ha, 21 DAT, STEME
  % activity: 0%
Stellaria media; Ex. 26 solo 250 gai/ha, 20 DAT, STEME
  % activity: 30%
Stellaria media; Ex. 26 solo, 125 gai/ha, 21 DAT, STEME
  % activity: 0%
Stellaria media; Ex. 26 solo, 250 gai/ha, 21 DAT, STEME
  % activity: 10%
Stellaria media; STEME, 21 DAT, solo Ex. 26 62.5 gai/ha
  % activity: 0%
Stellaria media; STEME, 21 DAT, solo Ex. 26 125 gai/ha
  % activity: 0%
Stellaria media; STEME, 21 DAT, solo Ex. 26 250 gai/ha
  % activity: 10%
Stellaria media; STEME, Ex. 26 solo 125 gai/ha, 20 DAT
  % activity: 40%
Stellaria media; STEME, Ex. 26 solo 250 gai/ha, 20 DAT
  % activity: 40%
Setaria viridis; [2]
  % activity: 0%
Setaria viridis; [1]
  % activity: 0%
Setaria viridis; 20 DAT, Ex. 26 solo 125 gai/ha
  % activity: 10%
Setaria viridis; Ex. 26 solo 62.5 gai/ha, 20 DAT, SETVI
  % activity: 0%
Setaria viridis; Ex. 26 solo 62.5 gai/ha, 21 DAT, SETVI
  % activity: 0%
Setaria viridis; Ex. 26 solo 125 gai/ha, 20 DAT, SETVI
  % activity: 0%
Setaria viridis; Ex. 26 solo 125 gai/ha, 21 DAT, SETVI
  % activity: 20%
Setaria viridis; Ex. 26 solo 250 gai/ha, 21 DAT, SETVI
  % activity: 25%
Setaria viridis; Ex. 26 solo, 31.25 gai/ha, 20 DAT, SETVI
  % activity: 0%
Setaria viridis; Ex. 26 solo, 62.5 gai/ha, 20 DAT, SETVI
  % activity: 0%
Setaria viridis; Ex. 26 solo, 125 gai/ha, 20 DAT, SETVI
  % activity: 0%
Setaria viridis; SETVI, 20 DAT, solo Ex. 26 125 gai/ha
  % activity: 0%
Setaria viridis; SETVI, Ex. 26 solo 125 gai/ha, 20 DAT
  % activity: 10%
Setaria viridis; SETVI, Ex. 26 solo 250 gai/ha, 20 DAT
  % activity: 35%
Polygonum aviculare; [1]
  % activity: 75%
Polygonum aviculare; 20 DAT, Ex. 26 solo 125 gai/ha
  % activity: 85%
Polygonum aviculare; Ex. 26 solo 62.5 gai/ha, 20 DAT, POLAV
  % activity: 85%
Polygonum aviculare; Ex. 26 solo 125 gai/ha, 20 DAT, POLAV
  % activity: 90%
Polygonum aviculare; Ex. 26 solo, 125 gai/ha, 20 DAT, POLAV
  % activity: 85%
Polygonum aviculare; POLAV, 21 DAT, solo Ex. 26 125 gai/ha
  % activity: 90%
Digitaria sanguinalis; [2]
  % activity: 30%
Digitaria sanguinalis; [1]
  % activity: 30%
Digitaria sanguinalis; 20 DAT, Ex. 26 solo 125 gai/ha
  % activity: 60%
Digitaria sanguinalis; DIGSA, 20 DAT, solo Ex. 26 62.5 gai/ha
  % activity: 20%
Digitaria sanguinalis; DIGSA, 20 DAT, solo Ex. 26 125 gai/ha
  % activity: 45%
Digitaria sanguinalis; DIGSA, 20 DAT, solo Ex. 26 125 gai/ha (Table X68)
  % activity: 40%
Digitaria sanguinalis; DIGSA, Ex. 26 solo 31.25 gai/ha, 20 DAT
  % activity: 35%
Digitaria sanguinalis; DIGSA, Ex. 26 solo 62.5 gai/ha, 20 DAT
  % activity: 55%
Digitaria sanguinalis; DIGSA, Ex. 26 solo 125 gai/ha, 20 DAT
  % activity: 60%
Digitaria sanguinalis; Ex. 26 solo 125 gai/ha, 21 DAT, DIGSA
  % activity: 45%
Digitaria sanguinalis; Ex. 26 solo, 31.25 gai/ha, 20 DAT, DIGSA
  % activity: 5%
Digitaria sanguinalis; Ex. 26 solo, 125 gai/ha, 20 DAT, DIGSA
  % activity: 40%
Matricaria chamomilla; Ex. 26 solo 62.5 gai/ha
  % activity: 0%
Matricaria chamomilla; Ex. 26 solo 125 gai/ha
  % activity: 0%
Brachiaria decumbens; 20 DAT, BRADC, Ex. 26 solo 125 gai/ha
  % activity: 50%
Brachiaria decumbens; [2]
  % activity: 0%
Brachiaria decumbens; [1]
  % activity: 0%
Brachiaria decumbens; 20 DAT, Ex. 26 solo 125 gai/ha
  % activity: 20%
Brachiaria decumbens; 21 DAT, BRADC, Ex. 26 solo 125 gai/ha
  % activity: 10%
Brachiaria decumbens; 21 DAT, BRADC, Ex. 26 solo 250 gai/ha
  % activity: 30%
Brachiaria decumbens; BRADC, Ex. 26 solo 31.25 gai/ha, 20 DAT
  % activity: 0%
Brachiaria decumbens; BRADC, Ex. 26 solo 62.5 gai/ha, 20 DAT
  % activity: 0%
Brachiaria decumbens; BRADC, Ex. 26 solo 125 gai/ha, 20 DAT
  % activity: 20% and 30%
Brachiaria decumbens; BRADC, Ex. 26 solo 250 gai/ha, 20 DAT
  % activity: 65%
Brachiaria decumbens; Ex. 26 solo 62.5 gai/ha, 20 DAT, BRADC
  % activity: 20%
Brachiaria decumbens; Ex. 26 solo 125 gai/ha, 20 DAT, BRADC
  % activity: 0%
Brachiaria decumbens; Ex. 26 solo, 31.25 gai/ha, 20 DAT, BRADC
  % activity: 0%
Brachiaria decumbens; Ex. 26 solo, 62.5 gai/ha, 20 DAT, BRADC
  % activity: 0%
Brachiaria decumbens; Ex. 26 solo, 125 gai/ha, 20 DAT, BRADC
  % activity: 0%
Lolium multiflorum; [2]
  % activity: 10%
Lolium multiflorum; 20 DAT, LOLMU, Ex. 26 solo 62.5 gai/ha
  % activity: 10%
Lolium multiflorum; Ex. 26 solo 62.5 gai/ha, 20 DAT, LOLMU
  % activity: 30%
Lolium multiflorum; Ex. 26 solo, 31.25 gai/ha, 20 DAT, LOLMU
  % activity: 0%
Lolium multiflorum; Ex. 26 solo, 62.5 gai/ha, 20 DAT, LOLMU
  % activity: 0%
Lolium multiflorum; Ex. 26 solo, 125 gai/ha, 20 DAT, LOLMU
  % activity: 0%
Lolium multiflorum; LOLMU, 20 DAT, solo Ex. 26 62.5 gai/ha
  % activity: 0%
Lolium multiflorum; LOLMU, 20 DAT, solo Ex. 26 62.5 gai/ha (Table X68)
  % activity: 0%
Lolium multiflorum; LOLMU, 20 DAT, solo Ex. 26 125 gai/ha
  % activity: 0%
Lolium multiflorum; LOLMU, Ex. 26 solo 31.25 gai/ha, 20 DAT
  % activity: 0%
Lolium multiflorum; LOLMU, Ex. 26 solo 62.5 gai/ha, 20 DAT
  % activity: 0%
Lolium multiflorum; LOLMU, Ex. 26 solo 125 gai/ha, 20 DAT
  % activity: 30%
Galium aparine; [2]
  % activity: 0%
Galium aparine; [1]
  % activity: 0%
Galium aparine; 20 DAT, Ex. 26 solo 125 gai/ha
  % activity: 0%
Galium aparine; 20 DAT, GALAP, Ex. 26 solo 31.25 gai/ha
  % activity: 0%
Galium aparine; 20 DAT, GALAP, Ex. 26 solo 62.5 gai/ha
  % activity: 0%
Galium aparine; 20 DAT, GALAP, Ex. 26 solo 125 gai/ha
  % activity: 0%
Galium aparine; 20 DAT, GALAP, Ex. 26 solo 250 gai/ha
  % activity: 0%
Galium aparine; Ex. 26 solo, 31.25 gai/ha, 20 DAT, GALAP
  % activity: 0%
Galium aparine; Ex. 26 solo, 62.5 gai/ha, 20 DAT, GALAP
  % activity: 0%
Galium aparine; Ex. 26 solo, 125 gai/ha, 20 DAT, GALAP
  % activity: 0%
Galium aparine; GALAP, 20 DAT, solo Ex. 26 125 gai/ha
  % activity: 0%
Galium aparine; GALAP, Ex. 26 solo 62.5 gai/ha, 20 DAT
  % activity: 0%
Galium aparine; GALAP, Ex. 26 solo 125 gai/ha, 20 DAT
  % activity: 0%
Galium aparine; GALAP, Ex. 26 solo 250 gai/ha, 20 DAT
  % activity: 0%
Poa annua; solo Ex. 26 62.5 gai/ha
  % activity: 70%
Poa annua; solo Ex. 26 125 gai/ha
  % activity: 65%
Poa annua; Ex. 26 solo 62.5 gai/ha
  % activity: 75% and 90%
Poa annua; Ex. 26 solo, 31.25 gai/ha
  % activity: 30%
Poa annua; Ex. 26 solo, 125 gai/ha
  % activity: 65%
